PubChem BioAssay AID228 (DTP/NCI, 2004)
Where “and” joins values, the source holds several entries; their conditions need not be identical. Equal entries are not always repeated. Inconclusive results are not listed.

Tested on: BDF1 mice, Friend leukemia sc, tumor weight T/C
Experiment: NCI In Vivo Anticancer Drug Screen. Data for tumor model Friend Virus Leukemia (Solid) (subcutaneous) in B6D2F1 (BDF1) mice
Details: endpoint: mean tumor weight, higher = larger tumour
Protocol: The antitumor activity of compounds was measured in mice bearing transplantable tumors. Survival or tumor size were measured and the results are expressed as the measurement made in the treated group (T) divided by the measurement made in the vehicle treated control group (C). The tumor model used in this assay is Friend Virus Leukemia (Solid) (subcutaneous) in B6D2F1 (BDF1) mice

[1] = dose: 50.0 mg/kg/injection, schedule: Q01DX011 (ip), vehicle: carboxymethylcellulose (CMC)
[2] = dose: 100.0 mg/kg/injection, schedule: Q01DX011 (ip), vehicle: carboxymethylcellulose (CMC)
[3] = dose: 30.0 mg/kg/injection, schedule: Q01DX011 (ip), vehicle: carboxymethylcellulose (CMC)
[4] = dose: 60.0 mg/kg/injection, schedule: Q01DX011 (ip), vehicle: carboxymethylcellulose (CMC)
[5] = dose: 120.0 mg/kg/injection, schedule: Q01DX011 (ip), vehicle: carboxymethylcellulose (CMC)
[6] = dose: 6.0 mg/kg/injection, schedule: Q01DX011 (ip), vehicle: carboxymethylcellulose (CMC)
[7] = dose: 25.0 mg/kg/injection, schedule: Q01DX011 (ip), vehicle: carboxymethylcellulose (CMC)
[8] = dose: 25.0 mg/kg/injection, schedule: Q01DX011 (ip), vehicle: saline
[9] = dose: 15.0 mg/kg/injection, schedule: Q01DX011 (ip), vehicle: saline
[10] = dose: 10.0 mg/kg/injection, schedule: Q01DX011 (ip), vehicle: saline
[11] = dose: 0.4 mg/kg/injection, schedule: Q01DX011 (ip), vehicle: carboxymethylcellulose (CMC)
[12] = dose: 0.6 mg/kg/injection, schedule: Q01DX011 (ip), vehicle: carboxymethylcellulose (CMC)

With `Nc1nc(N)c(N=Nc2ccccc2)c(=O)[nH]1` the T/C [1] was 74 % of control, the T/C [2] was 70 % of control and the T/C (dose: 200.0 mg/kg/injection, schedule: Q01DX011 (ip), vehicle: carboxymethylcellulose (CMC)) was 60 % of control.
With `CC(=O)Nc1ccc(NC(=O)c2ccc([As](O)O)cc2)cc1` the T/C [3] was 111 % of control, the T/C [4] was 109 % of control and the T/C [5] was 101 % of control.
In the case of `O=C(Nc1ccc(C2=NCCCN2)cc1)c1ccc(NC(=O)c2ccc(C3=NCCCN3)cc2)cc1`, the T/C (dose: 4.0 mg/kg/injection, schedule: Q01DX011 (ip), vehicle: carboxymethylcellulose (CMC)) is reported as 49 % of control, the T/C [6] is reported as 9 % of control and the T/C (dose: 8.0 mg/kg/injection, schedule: Q01DX011 (ip), vehicle: carboxymethylcellulose (CMC)) is reported as 1 % of control.
With `O=C(O)C1(NO)CCCC1` the T/C (dose: 12.5 mg/kg/injection, schedule: Q01DX011 (ip), vehicle: carboxymethylcellulose (CMC)) was 98 % of control, the T/C [7] was 78 % of control and the T/C [2] was 18 % of control and 34 % of control.
With `CCN(CC)CCN1C(=O)c2cccc3cccc(c23)C1=O` the T/C [8] was 106 % of control, the T/C (dose: 50.0 mg/kg/injection, schedule: Q01DX011 (ip), vehicle: saline) was 72 % of control and the T/C (dose: 100.0 mg/kg/injection, schedule: Q01DX011 (ip), vehicle: saline) was 85 % of control.
In the case of `c1ccc(CSc2ncnc3nc[nH]c23)cc1`, the T/C (dose: 5.0 mg/kg/injection, schedule: Q01DX011 (ip), vehicle: carboxymethylcellulose (CMC)) is reported as 118 % of control, the T/C (dose: 10.0 mg/kg/injection, schedule: Q01DX011 (ip), vehicle: carboxymethylcellulose (CMC)) is reported as 90 % of control and the T/C (dose: 15.0 mg/kg/injection, schedule: Q01DX011 (ip), vehicle: carboxymethylcellulose (CMC)) is reported as 109 % of control. For the same compound, the T/C [7] was 91 % of control.
With `CSc1ncnc2nc[nH]c12` the T/C (dose: 5.7 mg/kg/injection, schedule: Q01DX011 (ip), vehicle: carboxymethylcellulose (CMC)) was 155 % of control, the T/C (dose: 11.5 mg/kg/injection, schedule: Q01DX011 (ip), vehicle: carboxymethylcellulose (CMC)) was 115 % of control and the T/C (dose: 22.5 mg/kg/injection, schedule: Q01DX011 (ip), vehicle: carboxymethylcellulose (CMC)) was 59 % of control and 81 % of control. The T/C (dose: 45.0 mg/kg/injection, schedule: Q01DX011 (ip), vehicle: carboxymethylcellulose (CMC)) was 35 % of control and 42 % of control and the T/C (dose: 90.0 mg/kg/injection, schedule: Q01DX011 (ip), vehicle: carboxymethylcellulose (CMC)) was 39 % of control.
In the case of `NC(=O)/C=C/C(=O)O` (tested in a mixture with another compound), the T/C (dose: 7.5 mg/kg/injection, schedule: Q#A X022 (ip), vehicle: carboxymethylcellulose (CMC)) is reported as 78 % of control and the T/C (dose: 15.5 mg/kg/injection, schedule: Q#A X022 (ip), vehicle: carboxymethylcellulose (CMC)) is reported as 66 % of control.
`CSc1ncnc2c1ncn2C1OC(CO)C(O)C1O` (stereo not drawn) was tested, and the T/C (dose: 6.0 mg/kg/injection, schedule: Q01DX011 (ip), vehicle: saline) was 105 % of control, the T/C (dose: 9.0 mg/kg/injection, schedule: Q01DX011 (ip), vehicle: saline) was 121 % of control and the T/C (dose: 12.5 mg/kg/injection, schedule: Q01DX011 (ip), vehicle: saline) was 99 % of control. For the same compound, the T/C [9] was 112 % of control.
In the case of `O=NN(CCCl)C(=O)NCCCl`, the T/C (dose: 0.81 mg/kg/injection, schedule: Q01DX011 (ip), vehicle: saline) is reported as 112 % of control, the T/C (dose: 1.62 mg/kg/injection, schedule: Q01DX011 (ip), vehicle: saline) is reported as 102 % of control and the T/C (dose: 3.25 mg/kg/injection, schedule: Q01DX011 (ip), vehicle: saline) is reported as 54 % of control. The T/C (dose: 6.5 mg/kg/injection, schedule: Q01DX011 (ip), vehicle: saline) was 39 % of control, the T/C [10] was 88 % of control and the T/C [9] was 51 % of control. The T/C [8] was 4 % of control.
With `Cc1cc(N(CCCl)CCCl)ccc1N=Nc1ccccc1C(=O)O` the T/C (dose: 5.0 mg/kg/injection, schedule: Q01DX011 (ip), vehicle: saline) was 111 % of control, the T/C (dose: 7.5 mg/kg/injection, schedule: Q01DX011 (ip), vehicle: saline) was 111 % of control and the T/C [10] was 105 % of control. For the same compound, the T/C [9] was 60 % of control and 73 % of control, the T/C [8] was 21 % of control and the T/C (dose: 30.0 mg/kg/injection, schedule: Q01DX011 (ip), vehicle: saline) was 20 % of control.
For `CC(C)CCCCCCCCCCCCC(=O)NCC(=O)NC1C(O)C(O)C(Nc2ncnc3nc[nH]c23)OC1C(O)CO` (stereo not drawn), the T/C [11] was 93 % of control, the T/C [12] was 83 % of control and the T/C (dose: 0.9 mg/kg/injection, schedule: Q01DX011 (ip), vehicle: carboxymethylcellulose (CMC)) was 52 % of control. For the same compound, the T/C (dose: 1.35 mg/kg/injection, schedule: Q01DX011 (ip), vehicle: carboxymethylcellulose (CMC)) was 50 % of control and the T/C (dose: 1.35 mg/kg/injection, schedule: Q01DX011 (ip), vehicle: saline) was 37 % of control.
With `NCC(O)c1ccc(O)c(O)c1` (stereo not drawn) the T/C (dose: 9.37 mg/kg/injection, schedule: Q01DX011 (ip), vehicle: saline) was 84 % of control, the T/C (dose: 18.75 mg/kg/injection, schedule: Q01DX011 (ip), vehicle: saline) was 69 % of control and the T/C (dose: 37.5 mg/kg/injection, schedule: Q01DX011 (ip), vehicle: saline) was 30 % of control.
In the case of `CS(=O)(=O)OCCCl`, the T/C (dose: 14.0 mg/kg/injection, schedule: Q01DX011 (ip), vehicle: carboxymethylcellulose (CMC)) is reported as 67 % of control, the T/C (dose: 28.0 mg/kg/injection, schedule: Q01DX011 (ip), vehicle: carboxymethylcellulose (CMC)) is reported as 70 % of control and the T/C (dose: 57.0 mg/kg/injection, schedule: Q01DX011 (ip), vehicle: carboxymethylcellulose (CMC)) is reported as 69 % of control. The T/C (dose: 115.0 mg/kg/injection, schedule: Q01DX011 (ip), vehicle: carboxymethylcellulose (CMC)) was 60 % of control.
`CCC1=C(c2cc(Cl)c3ccccc3c2OCC(=O)O)OC(CC)(C(=O)c2cc(Cl)c3ccccc3c2OCC(=O)O)CC1` (stereo not drawn) was tested, and the T/C [3] was 52 % of control, the T/C [4] was 55 % of control and the T/C [5] was 63 % of control. For the same compound, the T/C (dose: 240.0 mg/kg/injection, schedule: Q01DX011 (ip), vehicle: carboxymethylcellulose (CMC)) was 66 % of control.
For `CCN(CC)CCNc1ccc([N+](=O)[O-])c2sc3ccccc3c(=O)c12`, the T/C (dose: 20.0 mg/kg/injection, schedule: Q01DX011 (ip), vehicle: saline) was 87 % of control and the T/C (dose: 40.0 mg/kg/injection, schedule: Q01DX011 (ip), vehicle: saline) was 110 % of control.
In the case of `CCC[CH2][Sn]1([CH2]CCC)[O]C(=O)C[S]1`, the T/C (dose: 0.62 mg/kg/injection, schedule: Q01DX011 (ip), vehicle: carboxymethylcellulose (CMC)) is reported as 98 % of control and the T/C (dose: 1.25 mg/kg/injection, schedule: Q01DX011 (ip), vehicle: carboxymethylcellulose (CMC)) is reported as 68 % of control.
With `C1CN1c1nc(N2CC2)nc(N2CC2)n1` the T/C (dose: 0.05 mg/kg/injection, schedule: Q01DX011 (ip), vehicle: carboxymethylcellulose (CMC)) was 164 % of control and 233 % of control, the T/C (dose: 0.1 mg/kg/injection, schedule: Q01DX011 (ip), vehicle: carboxymethylcellulose (CMC)) was 161 % of control and 293 % of control and the T/C (dose: 0.12 mg/kg/injection, schedule: Q01DX011 (ip), vehicle: carboxymethylcellulose (CMC)) was 114 % of control. The T/C (dose: 0.15 mg/kg/injection, schedule: Q01DX011 (ip), vehicle: carboxymethylcellulose (CMC)) was 41 % of control, the T/C (dose: 0.2 mg/kg/injection, schedule: Q01DX011 (ip), vehicle: carboxymethylcellulose (CMC)) was 169 % of control and 256 % of control and the T/C (dose: 0.2 mg/kg/injection, schedule: Q01DX011 (ip), vehicle: saline) was 61 % of control and 76 % of control. For the same compound, the T/C (dose: 0.3 mg/kg/injection, schedule: Q01DX011 (ip), vehicle: carboxymethylcellulose (CMC)) was 26 % of control, the T/C (dose: 0.3 mg/kg/injection, schedule: Q01DX011 (ip), vehicle: saline) was 49 % of control and the T/C [11] was 68 % of control and 85 % of control. For the same compound, the T/C (dose: 0.4 mg/kg/injection, schedule: Q01DX011 (ip), vehicle: saline) was 31 % of control and 35 % of control and the T/C [12] was 24 % of control.
In the case of `Nc1nc(SCc2ccccc2Cl)c2ncn(C3OC(CO)C(O)C3O)c2n1` (stereo not drawn), the T/C (dose: 0.38 mg/kg/injection, schedule: Q01DX011 (ip), vehicle: carboxymethylcellulose (CMC)) is reported as 102 % of control, the T/C (dose: 0.75 mg/kg/injection, schedule: Q01DX011 (ip), vehicle: carboxymethylcellulose (CMC)) is reported as 70 % of control and the T/C (dose: 1.0 mg/kg/injection, schedule: Q01DX011 (ip), vehicle: carboxymethylcellulose (CMC)) is reported as 61 % of control. The T/C (dose: 1.5 mg/kg/injection, schedule: Q01DX011 (ip), vehicle: carboxymethylcellulose (CMC)) was 83 % of control, the T/C (dose: 3.0 mg/kg/injection, schedule: Q01DX011 (ip), vehicle: carboxymethylcellulose (CMC)) was 61 % of control and 68 % of control and the T/C [6] was 61 % of control and 68 % of control. The T/C (dose: 12.0 mg/kg/injection, schedule: Q01DX011 (ip), vehicle: carboxymethylcellulose (CMC)) was 16 % of control and 41 % of control, the T/C [7] was 10 % of control and 28 % of control and the T/C [1] was 2 % of control.
